What was measured:
HEK293F cells [1] = experiment: EGFP expression from 6xATF6 promoter constructs with and without XBP1 intron after 2 mM DTT; format: cell-based, human
Protocol: For this study two constructs were prepared: • 1) 6×ATF6 elements (having the sequence TGACGTGCT) upstream of the CMV-minimal promoter (CMV-MP) and EGFP; this construct was named SYNP-ATF6-01 (see below, SEQ ID NO: 30). • 2) 6×ATF6 elements upstream of the CMV-MP and EGFP with XBP1 intron insertion; this construct was named SYNP-ATF6-02 (see below, SEQ ID NO: 31).
HEK293F cells were used in this study. All growth conditions, transfections and analyses were carried out as described in Example 1.
24 well transfections were set-up as described above. Each condition was performed in duplicate/triplicate. 24 hrs after transfection the cells were treated with either 2 mM DTT, to induce the UPR, or by mock treatment with an equivalent volume of water. 1, 3, 5 and 24 hrs after treatment of the cells GFP fluorescence was measured as previously described.
The ratio of GFP fluorescence to the control plasmid was calculated before and after induction.

HEK293F cells [2] = experiment: EGFP expression from ATF6 constructs induced by wtAAV production; format: cell-based, human
Protocol: In this experiment transfections were carried out in 24-well plates as previously described. The ATF6 plasmids (SYNP-ATF6-01 and SYNP-ATF6-02 constructs in the pMA-RQ vector) were transfected into HEK293F cells (using MAX reagent, as above) and after 24 hrs GFP was measured. After GFP measurement the same cells were transfected with the plasmids for wtAAV production pGRG25AAV2 (provided by Adrien Savvy) and pHelper plasmid from Takara/Clonetech in a 1:1 ratio. EGFP fluorescence was then measured after 1, 3, 5 and 24 hrs (FIGS. 7 and 8—not all data is shown). Both plasmids are required for wtAAV production, with the pGRG25AAV2 providing the wtAAV2 genome and the pHelper plasmid providing the E2, VA and E4 helper functions required for virus replication.
This confirmed successful AAV expression. Zs green is a variant of eGFP and as such GFP measurement was carried out on these cells as previously described.

SYNP-ATF6-02: 6×ATF6 elements upstream of the CMV-MP and EGFP with XBP1 intron insertion (SEQ ID NO: 31)
GFP expression after induction, ratio to CMV-IE (HEK293F cells [1]; 2 mM DTT, 3 independent experiments): 4 times the level of CMV-IE
background level of GFP fluorescence (HEK293F cells [1]; before DTT, raw data): practically zero
background level of EGFP before wtAAV production (HEK293F cells [2]): zero
